Measurements published in US20040014791A1, “Thiazolidinedione derivative and its use as antidiabetic” (priority 2000, published 2004).

Legend:
[1] = Solid state stability of the drug substance (storage, HPLC assay for final content and degradation products); type: physicochemical; conditions: 1 month, product of Example 3
Description: The solid state stability of the drug substance was determined by storing approximately 1.0 g of the material in a glass bottle at a) 40° C./75% Relative Humidity (RH), open exposure, for 1 month and b) at 50° C., closed, foe 1 month. The material was assayed by HPLC for final content and degradation products in both cases.

[2] = Flow properties: Hausner Ratio (bulk density vs tapped bulk density); type: physicochemical; conditions: ratio between the bulk density and the tapped bulk density; product of Example 3
Description: When used herein in respect of certain compounds the term “good flow properties” is suitably characterised by the said compound having a Hausner ratio of less than or equal to 1.5, especially of less than or equal to 1.25.
Flow Properties of the Fumarate
The ratio between the bulk density and the tapped bulk density (Hausner Ratio) of the Fumarate was determined using standard methods (“Pharmaceutics—The Science of Dosage Form Design”, editor M. Aulton, 1988, published by: Churchill Livingstone).

[3] = 40° C./75% Relative Humidity (RH), open exposure

## CN(CCOc1ccc(CC2SC(=O)NC2=O)cc1)c1ccccn1.O=C(O)/C=C/C(=O)O (centres unmarked) [Fumarate, 5-[4-[2-(N-methyl-N-(2-pyridyl)amino)ethoxy]benzyl]thiazolidine-2,4-dione fumarate]
[1]; [3]
  Solid state stability: HPLC assay: 100 % initial
  Solid state stability: degradation observed: No significant degradation observed
[1]; 50° C., closed
  Solid state stability: HPLC assay: 99 % initial
  Solid state stability: degradation observed: No significant degradation observed
[2]
  Hausner Ratio: 1.0
